Results taken from patent publication US8211907B2, “Fused indane compound” (priority 2007, dated 2012).
Counter-ions that a name gives are not always drawn. Like-named read-outs stand apart in the source and are kept apart here.

Key:
[1] = tested on: male ddy mouse; experiment: MES (maximal electroshock seizure) inhibitory action; type: in vivo; settings: for ED50: oral administration, electroshock 30 minutes later
Procedure: A test compound was orally administered to a male ddy mouse, an inhibitory action on the seizures caused by an electroshock applied at 30 minutes later (Interval 10 ms, Duration 0.9 ms, Amplitude 50 mA, Gate 0.2 s) was evaluated, and an NMDA receptor inhibitory action in vivo was measured (Palmer G C, Harris E W, Ray R, Stagnitto M L, Schmiesing R J. Arch Int Pharmacodyn Ther. 1992 May-June; 317: 16-34).

[2] = molecular target: NMDA receptor
[3] = tested on: T1, NMDA receptor; experiment: Intracellular calcium concentration determination by FLIPR in rat first-generation neurocytes (NMDA/glycine stimulation); type: cell-based; settings: rat first-generation neurocytes (DIV7-9), NMDA/glycine-induced calcium rise, 10 μM MK-801 = 100% inhibition
T1 construct: IC50
Procedure: 1) Preparation of Rat First-Generation Neurocytes
Anesthetized with ether, Wistar rats (Nippon SLC) at the 19th day of pregnancy were let die from blood loss by breast incision. The abdomen was cut open, and the womb was extracted, and the fetus was removed. The whole brain was removed, the hemicerebrum was then isolated in Neurobasal medium (Glu, Asp-free; Gibco), and the meninx was removed. The hemicerebrum was recovered by centrifugation, and suspended in a cell-dispersing solution (0.36 mg/ml papain, 150 U/ml DNase 1, 0.02% L-cysteine monohydrochloride monohydrate, 0.02% bovine serum albumin, 0.5% glucose, Ca^2+, Mg^2+-free PBS), and treated at 37° C. for 15 minutes. This was centrifuged at 400 g for 5 minutes, and the supernatant was removed by suction. This was suspended in a neurocyte culture medium (Sumitomo Bakelite), and the cell masses were removed using a filter. The number of the living cells was counted, and 100,000 cells/well were incubated on a 96-well plate (Biocoat PDL96W black/clear (Nippon Becton Dickinson)) (37° C., 5% CO2).
2) Intracellular Calcium Concentration Determination by FLIPR (Fluorometric Imaging Plate Reader)
The culture medium of rat first-generation neurocytes (DIV7-9) was removed by suction, and the cells were washed once with a 100 μl assay buffer (Hank's Balanced Salt Solution (Ca^2+, Mg^2+-free), 20 mM Hepes-NaOH (pH 7.4), 1 mM CaCl2). 100 μl of the assay buffer containing Fluo3 (Dojin Chemical) was added thereto, and incubated for 1 hour (37° C., 5% CO2). The cells were washed three times with 100 μl of the assay buffer, and then a compound solution dissolved in 1 μl of dimethylsulfoxide, and 100 μl of the assay buffer containing 2.5 μM (final concentration) tetrodotoxin were added thereto and incubated for 30 minutes (37° C., 5% CO2). The fluorescent intensity was measured at intervals of two seconds, and ten seconds after the measurement start, 50 μl of a ligand solution (Hank's Balanced Salt Solution (Ca^2+, Mg^2+-free), 20 mM Hepes-NaOH (pH 7.4), 1 mM CaCl2, 9 μM NMDA, 30 μM glycine) containing the compound solution dissolved in 0.5 μl of dimethylsulfoxide was added thereto, and the fluorescent intensity was measured for 120 seconds from the start of the measurement. The data measured for total of 120 seconds (60 times in total) were averaged.

[4] = molecular target: NMDA receptor; experiment: [3H] MK-801 binding test on rat brain membrane specimen
[5] = Mus musculus, po, 0.5 h, read-out: ED50

Compound | ED50 [1, 5] | Ki [2] | Ki [4] | also measured
c1ccc2c(c1)C[C@H]1CCCN[C@@H]21 (racemic) [Compound A, (4aRS,9bRS)-2,3,4,4a,5,9b-hexahydro-1H-indeno[1,2-b]pyridine, reference compound] | > 80 mg/kg | 38 µM |  | anti-seizure action ([1]; at 80 mg/kg, oral): did not exhibit an anti-seizure action
CC[C@]12CCCN[C@H]1c1ccccc1C2 (racemic) [Example 1, (4aRS,9bRS)-4a-ethyl-2,3,4,4a,5,9b-hexahydro-1H-indeno[1,2-b]pyridine hydrochloride] | 6.8 mg/kg |  | 0.9 µM | IC50 ([3]; read-out: IC50): 5.1 µM
C[C@]12CCCN[C@H]1c1ccccc1C2 (racemic) [Example 22, (4aRS,9bRS)-4a-methyl-2,3,4,4a,5,9b-hexahydro-1H-indeno[1,2-b]pyridine hydrochloride] | 11 mg/kg |  | 5.1 µM | IC50 ([3]; read-out: IC50): 34 µM
C[C@]12CCCCN[C@H]1c1ccccc1C2 (racemic) [Example 38-1, (5aRS,10bRS)-5a-methyl-1,2,3,4,5,5a,6,10b-octahydroindeno[1,2-b]azepine hydrochloride] |  |  | 0.5 µM | 
C[C@]12CCCN[C@@]1(C)c1ccccc1C2 (racemic) [Example 63, (4aRS,9bRS)-4a,9b-dimethyl-2,3,4,4a,5,9b-hexahydro-1H-indeno[1,2-b]pyridine hydrochloride] | 5.8 mg/kg |  | 0.8 µM | IC50 ([3]; read-out: IC50): 3 µM
COC[C@]12CCCN[C@@]1(C)c1ccccc1C2 [Example 68] | 26 mg/kg | 0.6 µM |  | 
c1ccc([C@@H]2c3ccccc3[C@@H]3NCCC[C@H]23)cc1 (racemic) [Compound C, reference compound] |  | 20 µM |  | 
C[C@@]12CCCN[C@@H]1c1ccccc1CC2 [Example 17] | 4.2 mg/kg | 2 µM |  | 
c1ccc([C@@H]2c3ccccc3[C@@H]3NCCC[C@H]23)cc1 (racemic) [Compound B, (4aRS,5RS,9bRS)-5-phenyl-2,3,4,4a,5,9b-hexahydro-1H-indeno[1,2-b]pyridine, reference compound] |  | 23 µM |  | 
COc1ccc2c(c1)[C@H]1N(C)CCC[C@@]1(C)C2 [Example 56] |  |  | 1.5 µM | 
C[C@@]12CCCN[C@@H]1c1ccccc1S2 (racemic) [Example 13, (4aRS,9bRS)-4a-methyl-1,2,3,4,4a,9b-hexahydro[1]benzothieno[3,2-b]pyridine hydrochloride] | 14 mg/kg |  | 2 µM | 
CCOC[C@]12CCCN[C@@]1(C)c1ccccc1C2 [Example 69] |  |  | 1.3 µM | 
C[C@]12CCCCN[C@@H]1c1ccccc1C2 (racemic) [Example 38-2, (5aRS,10bSR)-5a-methyl-1,2,3,4,5,5a,6,10b-octahydroindeno[1,2-b]azepine hydrochloride] |  |  | 6.3 µM | 
C[C@]12CCCN[C@@]1(C)c1ccccc1C2 (single isomer, unassigned) [Example 84-1, (4aR*,9bR*)-4a,9b-dimethyl-2,3,4,4a,5,9b-hexahydro-1H-indeno[1,2-b]pyridine hydrochloride] |  |  |  | IC50 ([3]; hydrochloride, read-out: IC50): 1.8 µM; ED50 ([1]; hydrochloride): 4.2 mg/kg, po; Ki ([4]; hydrochloride): 0.5 µM
c1ccc([C@]23CCCN[C@H]2c2ccccc2C3)cc1 [Example 3] | 39 mg/kg |  | 1.2 µM | IC50 [3]: 6.8 µM
CC[C@]12CCCN[C@H]1c1cc(CO)ccc1C2 [Example 77] |  |  | 4 µM | 
CC[C@]12CCCN[C@H]1c1ccccc1C2 (single isomer, unassigned) [Example 83-1, (4aR*,9bR*)-4a-ethyl-2,3,4,4a,5,9b-hexahydro-1H-indeno[1,2-b]pyridine hydrochloride] | 6.2 mg/kg |  |  | IC50 ([3]; hydrochloride, read-out: IC50): 3.1 µM; Ki ([4]; hydrochloride): 0.6 µM
CC[C@]12CCCN[C@H]1c1cc(COC)ccc1C2 (racemic) [Example 73, (4aRS,9bRS)-4a-ethyl-8-(methoxymethyl)-2,3,4,4a,5,9b-hexahydro-1H-indeno[1,2-b]pyridine hydrochloride] |  |  | 7.1 µM | 
Cc1cc2c(s1)C[C@]1(C)CCCN[C@H]21 [Example 15] | 38 mg/kg | 8.5 µM |  | 
C[C@@]12CCCN[C@@H]1c1ccccc1C2 [Example 82, (4aS,9bS)-4-a-methyl-2,3,4,4a,5,9b-hexahydro-1H-indeno[1,2-b]pyridine hydrochloride] | 19 mg/kg | 6.7 µM |  | IC50 ([3]; read-out: IC50): 94 µM
CN1CCC[C@]2(C)Cc3ccccc3[C@H]12 (racemic) [Example 42, (4aRS,9bRS)-1,4a-dimethyl-2,3,4,4a,5,9b-hexahydro-1H-indeno[1,2-b]pyridine methanesulfonate] | 31 mg/kg | 1.3 µM |  | 
C[C@]12CCCN[C@@]1(C)c1ccccc1C2 (single isomer, unassigned) [Example 84-2, (4aR*,9bR*)-4a,9b-dimethyl-2,3,4,4a,5,9b-hexahydro-1H-indeno[1,2-b]pyridine hydrochloride] |  |  |  | IC50 ([3]; hydrochloride, read-out: IC50): 6.1 µM; ED50 ([1]; hydrochloride): 28 mg/kg, po; Ki ([4]; hydrochloride): 1.1 µM
CC(C)[C@]12CCCN[C@@H]1c1ccccc1C2 [Example 32] | 26 mg/kg | 6.8 µM |  | 
C[C@]12CCCN[C@H]1c1ccccc1C2 [Example 81, (4aR,9bR)-4a-methyl-2,3,4,4a,5,9b-hexahydro-1H-indeno[1,2-b]pyridine hydrochloride] | 9.1 mg/kg |  | 2 µM | IC50 ([3]; read-out: IC50): 21 µM
CC[C@]12CCCN[C@H]1c1ccccc1C2 (single isomer, unassigned) [Example 83-2, (4aR*,9bR*)-4a-ethyl-2,3,4,4a,5,9b-hexahydro-1H-indeno[1,2-b]pyridine hydrochloride] |  |  |  | IC50 ([3]; hydrochloride, read-out: IC50): 12 µM; Ki ([4]; hydrochloride): 2.7 µM
